Reference: ChEMBL document CHEMBL3507680, “University of Dundee, Gates Library screen for HepG2 cell viability”

Test: Human HepG2 cell viability assay in 384 well format
Type: toxicity, cell-based
Set-up: dose 125 nL, time 70.5 hour; cytotoxicity at 70.5 h: concentration not given beside the values
Settings: HepG2 cells, read-out: Inhibition

| SMILES | cytotoxicity at 70.5 h [%] |
| --- | --- |
| COc1cccc(N2CCN(C(=O)c3noc4c3CCCCC4)CC2)c1 | -4.22 |
| COCCN1CCc2nc(SCc3ccc(F)cc3)[nH]c(=O)c2C1 | 28.7 |
| CCC(C)NS(=O)(=O)c1ccc(/C=C\c2onc(C)c2NC(C)=O)cc1 (centres undefined) | -4.12 |
| CC(=O)Nc1c(C)noc1/C=C\c1ccc(S(=O)(=O)NC2CC2)cc1 | -1.71 |
| CN1C(=N)NC(=O)/C1=C/c1ccc(-c2ccc(Br)cc2)o1 | 1.84 |
| O=C(CCC(=O)Nc1nnc(C(F)(F)F)s1)NCC1CCCO1 (centres undefined) | -0.323 |
| Cc1cc(=O)n2nc(-c3cccs3)nc2n1CC(=O)NC(C)C | -24 |
| COCCNC(=O)c1ccc2c(=O)n3c(nc2c1)CCCC3 | -2.97 |
| CCc1nc(-c2ccc(NC(=O)N3CCC4(CC3)OCCO4)cc2)no1 | 3.68 |
| COc1ccccc1CNc1c(O)c(=O)c1=O | -7.01 |
| COc1ccc(OC)c(CNc2c(O)c(=O)c2=O)c1 | -21.2 |
| CCOC(=O)CNC(=O)NCc1cccn1Cc1ccc(F)cc1 | 22.9 |
| CCOC(=O)CNC(=O)NCc1cccn1Cc1ccccc1C | -17.6 |
| CCOC(=O)N1CCN(C(=O)CCn2cccc2)CC1 | 7.81 |
| CC(=O)N1N=C(COc2ccc3c(c2)OCO3)OC1c1ccc(C)cc1 (centres undefined) | -14.5 |
| COCCn1c(-c2cccc(OC)c2)cnc1NC(=O)NC(C)C | -2.89 |
| CCOc1ccc(C(=O)Nc2c(C)nc3ccccn3c2=O)cc1 | 19.8 |
| CCOc1ccc(C(=O)Nc2c(C)nc3cccc(C)n3c2=O)cc1 | -19.3 |
| COc1cnc(CSc2nnc(C)s2)cc1OCC(=O)NC(C)(C)C | -7.68 |
| Cc1ccc2oc(SCC(N)=O)nc2n1 | -21.9 |
| Cc1n[nH]c2c1C(c1cc(F)cc(F)c1)SCC(=O)N2 (centres undefined) | 17.9 |

| SMILES | cytotoxicity at 70.5 h [%] |
| --- | --- |
| COc1ccc(C2CCCN2C(=O)c2cc(C(C)C)on2)cc1 (centres undefined) | -9.05 |
| COc1cccc(CN2CCCC2c2cccc(F)c2)c1OC (centres undefined) | -11.8 |
| COc1cc(NC(=O)N2CCCC2c2ccco2)cc(OC)c1 (centres undefined) | -8.23 |
| Cc1[nH]c2nc(CNc3ccccc3Cl)nn2c(=O)c1C | -10.8 |
| Cc1ccc(Cl)cc1NCc1nc2[nH]c(C)c(C)c(=O)n2n1 | -0.0581 |
| Cc1ccc(Cl)cc1NC(=O)Nc1c[nH]c(=O)[nH]c1=O | 0.569 |
| Cc1ccc(NC(=O)Nc2c[nH]c(=O)[nH]c2=O)c(C)c1 | 11.8 |
| CCc1nnc(SCc2cc(=O)n3c4c(sc3n2)CCCC4)[nH]1 | -1.82 |
| Nc1nnc(SCc2cc(=O)n3c4c(sc3n2)CCCC4)[nH]1 | -3.97 |
| Cc1n[nH]c(C)c1CC(=O)NCCc1ccccc1 | 14.3 |
| CSc1ccc(CCNC(=O)Cc2c(C)n[nH]c2C)cc1 | -7.74 |
| O=C(NC[C@]1(O)CN(Cc2ccccc2F)C[C@H]1O)c1ccccn1 | -62.9 |
| COc1cccc(-c2noc(C3CCN(Cc4cn(C)nc4C)C3)n2)c1 (centres undefined) | -5.53 |
| Cn1cc(C(=O)N2CCCC(Cc3nccs3)C2)cn1 (centres undefined) | -1.09 |
| Cc1cncc(C2CCCN(Cc3cccn3C)C2)n1 (centres undefined) | 0.452 |
| CCCn1ccc(C(=O)N2CCOC(c3nc(-c4cccs4)no3)C2)n1 (centres undefined) | 4.34 |
| CCn1cc(CN2CCCC(c3[nH]ncc3S(C)(=O)=O)C2)cn1 (centres undefined) | 1.9 |
| Fc1ccc(CN2CCCC2c2cncc(-n3ccnc3)n2)cc1 (centres undefined) | -1.28 |
| COCC(=O)N1CCC(c2cc(C(F)(F)F)n3ccnc3n2)CC1 | -8.3 |
| CC1CN(C)CCN1C(=O)c1ccn(-c2ccccc2Cl)n1 (centres undefined) | 16.7 |
| c1cc(CN2CCCC2c2noc(C3CC3)n2)on1 (centres undefined) | -15.8 |

| SMILES | cytotoxicity at 70.5 h [%] |
| --- | --- |
| COc1c(C2CCCN2C(=O)c2cc(C)on2)c(C)nn1C (centres undefined) | -8.13 |
| CNS(=O)(=O)c1ccc(CNC(=O)c2cccc(C)n2)cc1 | 16.9 |
| O=c1oc(-c2ccc(F)cc2)nn1CN1CCSCC1 | -15 |
| Cc1noc(C(C)C)c1C(=O)NCc1cccc(CN(C)C)c1 | -1.69 |
| CC1CN(Cc2ccccn2)CCN1c1ccc2nncn2n1 (centres undefined) | -0.942 |
| CCc1nnc2n1CCN(C(=O)c1cc3cc(C)ccc3[nH]1)C2 | -13.6 |
| CCOc1cccc(CNC2CCCN(Cc3noc(C)n3)C2)c1 (centres undefined) | -12.1 |
| CCc1nnc2n1CCN(C(=O)c1cc3ccccc3[nH]1)C2 | -7.28 |
| CN1CCN(C2CCN(CCOc3ccc(Cl)cc3)CC2)C1=O | -6.64 |
| CN1CCN(C2CCN(CCOc3cccc(Cl)c3)CC2)C1=O | -7.02 |
| CN1CCN(C2CCN(CCOc3ccc(C#N)cc3)CC2)C1=O | -5.65 |
| CCc1nc(C2CCCN2CC(=O)Nc2nnc(C)s2)no1 (centres undefined) | -13.4 |
| COc1c(C2CCCN2C(=O)c2cnc[nH]2)c(C)nn1C (centres undefined) | -2.57 |
| CCN1CCN(C2CCN(CCOc3ccc(F)cc3)CC2)C1=O | -11.7 |
| Cc1cnc(CN2CCN(c3ccc4nncn4n3)C(C)C2)cn1 (centres undefined) | -15.4 |
| Cc1nc(CN2CCN(c3ccc4nncn4n3)C(C)C2)oc1C (centres undefined) | -8.63 |
| COc1ccc(CNC(C)Cn2cccn2)cc1F (centres undefined) | -1.59 |
| c1ccc(-c2nc(CN3CCCC3Cn3cccn3)no2)cc1 (centres undefined) | 1.06 |
| COc1ccc(-n2ccc(C(=O)NCCN3CCCCCC3)n2)cc1 | -2.62 |
| O=C(Cc1cccc(F)c1)NCCNCc1cccnc1 | -4.1 |
| COc1cn(-c2ccccc2)nc1C(=O)NCCN1CCCC(C)C1 (centres undefined) | -7.85 |

| SMILES | cytotoxicity at 70.5 h [%] |
| --- | --- |
| O=C1CN(c2ccc(CNC(=O)NCC3CCOC3)cc2)CCN1 (centres undefined) | -5.59 |
| CC1CCCN(CCNC(=O)c2ccn(-c3cccc(F)c3)n2)C1 (centres undefined) | 1.27 |
| c1cc2n(n1)CC(CNCc1ccc(OC3CCCC3)nc1)CN2 (centres undefined) | -14.1 |
| c1ccc(-c2nccc(CNC3CCc4ncnn4C3)n2)cc1 (centres undefined) | -4.99 |
| COc1cccc(S(=O)(=O)NC(=O)CC2CCCO2)c1 (centres undefined) | 21.5 |
| Cc1cc(C[S+]([O-])CC(=O)NCc2cccc(Cl)c2)no1 (centres undefined) | -10.3 |
| O=C(Cc1ccc(F)cc1)NCCNCc1cccc(O)c1 | 0.177 |
| N#Cc1cccc(CNCCNC(=O)Cc2cccc(F)c2)c1 | 26.7 |
| c1ccc(Cc2noc(CN3CCCC3Cn3cccn3)n2)cc1 (centres undefined) | -7.45 |
| CC(=O)NC(C)C(=O)NCc1ccc(N2CCNC(=O)C2)cc1 (centres undefined) | -15.7 |
| COc1ccc(S(=O)(=O)NC(=O)COC2CCCCC2)cc1C | -4.48 |
| COc1ccc(S(=O)(=O)NC(=O)COC2CCCCC2)cc1 | -7.04 |
| CCn1cnnc1C1CCN(C(=O)c2cccc(C)c2C)CC1 | 30.1 |
| CC(NC(=O)Cn1cccn1)c1ccc2c(c1)OCCO2 (centres undefined) | -11.1 |
| CCn1cnnc1CNC(=O)N1CCN(c2ccccc2OC)CC1 | -9.83 |
| Cc1noc(CNc2ccc(C(=O)N3CCCC(C)C3)cc2C)n1 (centres undefined) | -6.32 |
| O=C1NCCN1C1CCN(Cc2nc(-c3ccc(F)cc3)no2)CC1 | 25 |
| Cc1cc(C)n(CC2CN(CC(=O)NC3(C#N)CCCC3)CCO2)n1 (centres undefined) | -3.7 |
| Cc1cc(C)n(CC2CN(CC(=O)NC(C3CC3)C3CC3)CCO2)n1 (centres undefined) | -4.44 |
| COc1cc(CNC(C)Cn2cccn2)cc(Cl)c1OC (centres undefined) | -4.38 |
| COc1cc(CNC(C)Cn2cccn2)cc2c1OCCO2 (centres undefined) | -4.44 |
